{"source": "patent US7700101B2", "about": "“Reagents and method for modulating Dkk-mediated interactions” (Wyeth, priority 2001, dated 2010)", "key": {"canonical Wnt pathway": {"system": "canonical Wnt pathway", "assay": "Xenopus embryo assay, hDkk-1 dose-response (enlarged anterior structures)", "assay_type": "in vivo", "details": "250 pg/embryo hDkk-1 RNA; FIG. 10", "protocol": "mRNA for microinjection into Xenopus embryos is generated by in vitro transcription using the CDNA constructs in the pCS2^+ vector described above as template. RNA is synthesized using the Ambion mMessage mMachine high yield capped RNA transcription kit (Cat. #1340) following the manufacturer's specifications for the Sp6 polymerase reactions. RNA products were brought up to a final volume of 50 μl in sterile, glass-distilled water and purified over Quick Spin-Columns for Radiolabelled RNA Purification G50-Sephadex (Roche, Cat. #1274015) following the manufacturer's specifications. The resulting eluate was finally extracted with phenol:chloroform:isoamyl alcohol and isopropanol precipitated using standard protocols (Sambrook et al., 1989). Final RNA volumes were approximately 50 μl. RNA concentration was determined by absorbance values at 260 nm and 280 nm. RNA integrity was visualized by ethidium bromide staining of denaturing (formaldehyde) agarose gel electrophoresis (Sambrook et al., 1989). Various amounts of RNA (2 pg to 1 ng) are injected into the ventral blastomere of the 4- or 8-cell Xenopus embryo. These protocols are described in Moon et al., Technique-J. of Methods in Cell and Mol. Biol. 1: 76-89 (1989), and Peng, Meth. Cell. Biol. 36: 657-62 (1991). […]"}, "HBM": {"molecular_target": "T1, HBM (Homo sapiens, UniProt O75197, G171V)", "T1 construct": "Full length Zmax/LRP5 and HBM ORF cDNA; expressed in transfected cells; host or cells: HOB-03-CE6 osteoblastic cells; U2OS osteosarcoma cells; HEK293", "T1 sequence (O75197 32-1615 G171V)": "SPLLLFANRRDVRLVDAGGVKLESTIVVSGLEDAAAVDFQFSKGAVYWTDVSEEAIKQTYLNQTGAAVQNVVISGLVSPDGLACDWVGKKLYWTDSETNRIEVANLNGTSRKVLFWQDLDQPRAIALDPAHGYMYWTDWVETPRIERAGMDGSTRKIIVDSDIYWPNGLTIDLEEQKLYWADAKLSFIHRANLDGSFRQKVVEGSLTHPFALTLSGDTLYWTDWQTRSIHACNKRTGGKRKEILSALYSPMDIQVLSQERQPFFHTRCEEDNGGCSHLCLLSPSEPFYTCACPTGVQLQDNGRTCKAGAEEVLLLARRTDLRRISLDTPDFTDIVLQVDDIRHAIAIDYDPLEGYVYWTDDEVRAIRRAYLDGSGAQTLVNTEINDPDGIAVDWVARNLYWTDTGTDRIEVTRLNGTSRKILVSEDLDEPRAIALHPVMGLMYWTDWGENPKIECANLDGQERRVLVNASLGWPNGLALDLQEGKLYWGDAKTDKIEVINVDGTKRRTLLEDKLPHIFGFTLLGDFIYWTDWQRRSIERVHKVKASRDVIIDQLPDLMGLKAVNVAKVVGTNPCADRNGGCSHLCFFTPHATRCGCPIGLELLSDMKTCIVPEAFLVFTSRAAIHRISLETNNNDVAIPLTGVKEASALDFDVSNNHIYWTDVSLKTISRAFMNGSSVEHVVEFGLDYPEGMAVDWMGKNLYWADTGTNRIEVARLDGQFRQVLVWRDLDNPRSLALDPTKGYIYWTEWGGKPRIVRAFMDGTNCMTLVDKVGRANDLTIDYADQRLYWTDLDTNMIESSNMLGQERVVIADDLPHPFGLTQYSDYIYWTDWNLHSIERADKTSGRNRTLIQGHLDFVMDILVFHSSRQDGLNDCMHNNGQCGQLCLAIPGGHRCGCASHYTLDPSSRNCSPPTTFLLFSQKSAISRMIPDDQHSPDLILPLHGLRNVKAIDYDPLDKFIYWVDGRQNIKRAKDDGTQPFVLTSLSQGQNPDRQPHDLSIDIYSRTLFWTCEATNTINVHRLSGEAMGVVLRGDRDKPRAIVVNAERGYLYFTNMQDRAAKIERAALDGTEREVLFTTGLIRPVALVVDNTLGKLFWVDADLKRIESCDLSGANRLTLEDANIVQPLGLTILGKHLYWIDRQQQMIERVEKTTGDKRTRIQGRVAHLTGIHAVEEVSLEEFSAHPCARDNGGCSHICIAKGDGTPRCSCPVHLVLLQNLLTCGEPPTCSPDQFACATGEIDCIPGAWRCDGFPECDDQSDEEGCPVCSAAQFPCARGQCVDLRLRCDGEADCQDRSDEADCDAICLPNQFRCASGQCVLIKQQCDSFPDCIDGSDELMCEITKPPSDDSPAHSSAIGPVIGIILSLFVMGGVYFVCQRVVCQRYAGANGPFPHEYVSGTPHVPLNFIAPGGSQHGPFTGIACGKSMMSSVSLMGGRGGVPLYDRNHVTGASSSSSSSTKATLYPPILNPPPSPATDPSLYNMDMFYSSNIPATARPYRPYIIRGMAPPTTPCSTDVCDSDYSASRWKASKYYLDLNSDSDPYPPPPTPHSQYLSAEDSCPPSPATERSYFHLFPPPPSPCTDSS", "assay": "TCF-luciferase assay in HOB-03-CE6 cells, HBM", "assay_type": "cell-based", "details": "Wnt1, FIG. 14", "protocol": "HOB-03-CE6 osteoblastic cells developed by Wyeth Ayerst (Philadelphia, Pa.) were seeded into 24-well plates at 150,000 cells per well in 1 ml of the growth media (D-MEM/F12 phenol red-free) containing 10% (v/v) heat-inactivated FBS, 1×penicillin streptomycin, and 1X Glutamax-1, and incubated overnight at 34° C. The following day, the cells were transfected using Lipofectamine 2000® (as described by the manufacturer, Invitrogen) in OptiMEM (Invitrogen) with 0.35 μg/well of LRP5, HBM, or control plasmid DNA (empty vector pcDNA3.1) and either Wnt1 or Wnt3 a plasmid DNA. […] All wells were transfected with 0.025 μg/well of CMV beta-galactosidase plasmid DNA and 0.35 μg/well 16X TCF(ASyluciferase reporter DNA (developed by Ramesh Bhat, Wyeth-Ayerst (Philadelphia, Pa.)). After 4 hours of incubation, the cells were rinsed and 1 ml of fresh growth media was added to each well. The cells were cultured overnight at 34° C., followed by a wash and a change of media. Cells were cultured for an additional 18-24 hours at 37° C. Cells were then lysed with 50 μl/well of 1X lysis buffer. The extracts were assayed for beta-galactosidase activity (Galacto Reaction Buffer Diluent & Light Emission Accelerator, Tropix) using 5 μl extract+50 μl beta-galactosidase diluent and luciferase activity (Luciferase Assay Reagent, Promega) using 20 μl extract."}}, "note": "Entries after “also recorded” stand apart in the source; their conditions may differ.", "data": [{"substance": "Dkk-1: Dickkopf-1 protein, antagonist of the Wnt pathway; expressed from human cDNA (RNA or plasmid)", "values": [{"measurement": "embryos displaying enlarged anterior structures (big heads)", "setting": "canonical Wnt pathway", "result": "over 90%"}, {"measurement": "HBM/Wnt1 mediated TCF-luciferase activity", "setting": "HBM", "result": "no effect; also recorded: had no effect on LRP5 or HBM mediated TCF-luciferase activity"}]}]}
